The text below walks through data of ChEMBL document CHEMBL3352762 (J Med Chem, 2014).

The source made the active and inactive calls. No cut-off for these calls is given here. Peptide text beside a SMILES is read from it.

Data set [1] has as its target T1, Urotensin-2 receptor (Rattus norvegicus) (UniProt P49684).
T1 sequence (whole entry): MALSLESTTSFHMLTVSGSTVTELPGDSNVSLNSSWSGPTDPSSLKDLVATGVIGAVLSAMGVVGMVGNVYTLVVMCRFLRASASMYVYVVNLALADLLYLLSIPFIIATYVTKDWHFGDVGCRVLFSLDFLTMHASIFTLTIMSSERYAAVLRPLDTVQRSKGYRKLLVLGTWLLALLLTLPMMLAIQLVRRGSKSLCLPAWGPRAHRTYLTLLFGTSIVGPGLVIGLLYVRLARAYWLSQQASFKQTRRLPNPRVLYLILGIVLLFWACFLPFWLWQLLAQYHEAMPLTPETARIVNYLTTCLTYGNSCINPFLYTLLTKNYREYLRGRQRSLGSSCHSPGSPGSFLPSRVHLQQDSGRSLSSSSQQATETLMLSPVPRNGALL
Briefly: Agonist activity at UT receptor in rat aorta assessed as contraction relative to urotensin-2. Type of data set: tissue-based.

For data set [2], the target named is T1, Urotensin-2 receptor (Rattus norvegicus). Briefly: Competitive antagonist activity at UT receptor in rat aorta assessed as effect on urotensin-2-induced contraction. In kind it is tissue-based.
The target of data set [3] is T2, Urotensin-2 receptor (Homo sapiens) (UniProt Q9UKP6).
T2 sequence (whole entry): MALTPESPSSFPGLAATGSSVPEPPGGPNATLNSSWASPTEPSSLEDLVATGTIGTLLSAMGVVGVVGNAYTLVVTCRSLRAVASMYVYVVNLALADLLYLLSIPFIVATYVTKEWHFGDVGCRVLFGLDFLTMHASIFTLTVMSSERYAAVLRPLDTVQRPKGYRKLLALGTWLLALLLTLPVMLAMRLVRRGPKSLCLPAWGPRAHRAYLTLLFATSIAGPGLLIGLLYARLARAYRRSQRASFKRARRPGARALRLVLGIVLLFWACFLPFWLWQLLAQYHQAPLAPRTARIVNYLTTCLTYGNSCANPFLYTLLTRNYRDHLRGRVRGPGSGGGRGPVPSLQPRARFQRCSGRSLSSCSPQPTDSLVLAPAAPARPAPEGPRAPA
Briefly: Partial agonist activity at human recombinant UT receptor expressed in CHO-K1 cells assessed as stimulation of intracellular calcium mobilization at 1 uM by FLIPR assay relative to urotensin-2. Type of data set: functional, cell-based.

For data set [4], the target named is T2, Urotensin-2 receptor (Homo sapiens). Briefly: Partial agonist activity at human recombinant UT receptor expressed in CHO-K1 cells assessed as stimulation of intracellular calcium mobilization by FLIPR assay. In kind it is functional, cell-based.
For data set [5] the target is unchanged. Briefly: Partial agonist activity at human recombinant UT receptor expressed in CHO-K1 cells assessed as stimulation of intracellular calcium mobilization at 10 uM by FLIPR assay relative to urotensin-2. Type of data set: functional, cell-based. (In general: Calcium flux is commonly read through the fluorescence of an indicator in the cells.)
In data set [6] the target is T1, Urotensin-2 receptor (Rattus norvegicus). Briefly: Agonist activity at UT receptor in rat aorta assessed as contraction. In kind it is tissue-based.
Another data set deals with T3, Urotensin-2 receptor (Homo sapiens, UniProt Q9UKP6).
T3 sequence (Q9UKP6 whole entry): T2 sequence (whole entry)
Briefly: Displacement of [125I]urotensin-2 from human recombinant UT receptor expressed in CHO-K1 cells by scintillation counting method. Type of data set: cell-based.

The nature of data set [7]: Stability in 25% fetal calf serum assessed as parent compound remaining at 80 uM at 37 degC after 36 hrs by RP-HPLC-UV based detection assay. Type of data set: ADME, Bos taurus. Particulars: cattle, read-out: Stability.
Data set [8] can be described thus: Stability in 25% fetal calf serum assessed as parent compound remaining at 80 uM at 37 degC after 16 hrs by RP-HPLC-UV based detection assay. In kind it is ADME, Bos taurus. Particulars: cattle, read-out: Stability.

Broadly, the Emax is the size of the effect at its maximum, as opposed to the concentration needed. What is called pKb is the negative decadic logarithm of the Kb, by convention in mol/L. The term Ki denotes a dissociation constant, usually derived from enzyme kinetics or from competition with a known ligand.

For the compound `CC(C)[C@H](NC(=O)[C@@H]1CSSC(C)(C)[C@@H](NC(=O)[C@@H](N)CC(=O)O)C(=O)N[C@@H](Cc2ccccc2)C(=O)N[C@H](Cc2c[nH]c3ccccc23)C(=O)N[C@@H](CCCN)C(=O)N[C@@H](Cc2ccc(O)cc2)C(=O)N1)C(=O)O` (HELM PEPTIDE1{D.[CC(C)(S[*:3])[C@@H](N[*:1])C(=O)[*:2]].F.[dW].[Orn].Y.C.V}$PEPTIDE1,PEPTIDE1,2:R3-7:R3$$$V2.0), the maximum response (Emax) in [1] stood at 0%. The pKb in data set [2] was found to be 8.32. In addition, the Efficacy was 43.3% in data set [3] and 46.2% in data set [5]. In [4], the outcome was Active. Also, the pEC50 result in data set [6] was “inactive”.
On to `CC(C)[C@H](NC(=O)[C@@H]1CSSC(C)(C)[C@H](NC(=O)[C@@H](N)CC(=O)O)C(=O)N[C@@H](Cc2ccccc2)C(=O)N[C@H](Cc2c[nH]c3ccccc23)C(=O)N[C@@H](CCCN)C(=O)N[C@@H](Cc2ccc([N+](=O)[O-])cc2)C(=O)N1)C(=O)O`, for which the Ki on Urotensin-2 receptor is 17 nM. Moreover, the Emax in [1] turned out to be 0%. Also, in [2], the pKb worked out at 8.12. The values for the Efficacy in [3] and in data set [5] were 56.5% and 61.2%, respectively. Moreover, the outcome in [4] was Active. For the same compound, in data set [6], the pEC50 entry was “inactive”.
For the compound `CC(C)[C@H](NC(=O)[C@@H]1CSSC(C)(C)[C@H](NC(=O)[C@@H](N)CC(=O)O)C(=O)N[C@@H](Cc2ccccc2)C(=O)N[C@H](Cc2c[nH]c3ccccc23)C(=O)N[C@@H](CCCN)C(=O)N[C@@H](Cc2ccc(C#N)cc2)C(=O)N1)C(=O)O`, the remaining at 36 h, 80 µM in data set [7] was above 50%. For the same compound, on Urotensin-2 receptor, the Ki is 12 nM. Also, in data set [1], the Emax came out at 0%. The remaining at 16 h, 80 µM in data set [8] was above 70%. Also, in data set [2], the pKb was found to be 8.15. Moreover, the Efficacy in [3] turned out to be 61.4%; in data set [5] it was 61.7%. The result in [4] was Active. In addition, the pEC50 entry in data set [6] is “inactive”.
